Numbers after ± are expanded uncertainties.
Details: Liquid, Pulse-echo method

CCO [ethanol]
Details | speed of sound [m/s]
253.22 K, 104.2 kPa | 1304.8 ± 0.7
253.22 K, 130.2 kPa | 1305.1 ± 0.7
253.22 K, 5018.8 kPa | 1330.4 ± 0.71
253.22 K, 5283.4 kPa | 1331.5 ± 0.71
253.22 K, 10112 kPa | 1355.4 ± 0.72
253.22 K, 10246 kPa | 1355.8 ± 0.72
253.22 K, 15106 kPa | 1379.1 ± 0.73
253.22 K, 15229 kPa | 1379.4 ± 0.73
253.22 K, 19991 kPa | 1401.4 ± 0.74
253.22 K, 20403 kPa | 1402.9 ± 0.74
253.22 K, 24921 kPa | 1422.9 ± 0.75
253.22 K, 25022 kPa | 1423.6 ± 0.75
253.22 K, 30114 kPa | 1444.8 ± 0.76
253.23 K, 30052 kPa | 1444.5 ± 0.76
273.2 K, 99.9 kPa | 1230.8 ± 0.67
273.2 K, 5193.3 kPa | 1259.3 ± 0.69
273.2 K, 10100 kPa | 1285.4 ± 0.7
273.2 K, 15284 kPa | 1311.7 ± 0.7
273.2 K, 20253 kPa | 1336 ± 0.72
273.2 K, 25058 kPa | 1358.8 ± 0.72
273.2 K, 25221 kPa | 1359.3 ± 0.72
273.2 K, 30203 kPa | 1381.6 ± 0.73
273.21 K, 128.6 kPa | 1231.1 ± 0.67
273.21 K, 5026.6 kPa | 1258.5 ± 0.68
273.21 K, 10148 kPa | 1285.8 ± 0.7
273.21 K, 15029 kPa | 1310.8 ± 0.7
273.21 K, 20070 kPa | 1335.2 ± 0.71
273.21 K, 30338 kPa | 1382.2 ± 0.73
293.2 K, 103.7 kPa | 1160 ± 0.63
293.2 K, 5339.4 kPa | 1192 ± 0.65
293.2 K, 10368 kPa | 1220.8 ± 0.66
293.2 K, 15197 kPa | 1247.2 ± 0.68
293.2 K, 20222 kPa | 1273.4 ± 0.69
293.2 K, 25256 kPa | 1298.5 ± 0.7
293.2 K, 30069 kPa | 1321.4 ± 0.7
293.21 K, 140 kPa | 1160.4 ± 0.63
293.21 K, 5169 kPa | 1191 ± 0.65
293.21 K, 9977.3 kPa | 1218.7 ± 0.66
293.21 K, 15052 kPa | 1246.6 ± 0.67
293.21 K, 20101 kPa | 1272.9 ± 0.68
293.21 K, 25034 kPa | 1297.5 ± 0.69
293.21 K, 30268 kPa | 1322.5 ± 0.71
313.21 K, 103.8 kPa | 1091.9 ± 0.61
313.21 K, 121.8 kPa | 1092.3 ± 0.61
313.21 K, 5023.3 kPa | 1124.7 ± 0.62
313.21 K, 5318.6 kPa | 1126.5 ± 0.62
313.21 K, 10011 kPa | 1155.8 ± 0.63
313.21 K, 10351 kPa | 1157.8 ± 0.64
313.21 K, 14993 kPa | 1185.1 ± 0.64
313.21 K, 15238 kPa | 1186.6 ± 0.65
313.21 K, 20052 kPa | 1213.5 ± 0.66
313.21 K, 20317 kPa | 1214.8 ± 0.66
313.21 K, 25163 kPa | 1240.5 ± 0.67
313.21 K, 25383 kPa | 1241.6 ± 0.67
313.21 K, 30116 kPa | 1265.6 ± 0.68
313.21 K, 30384 kPa | 1266.8 ± 0.68
333.21 K, 104.1 kPa | 1024.9 ± 0.59
333.21 K, 137.3 kPa | 1025.2 ± 0.59
333.21 K, 5087.6 kPa | 1061.2 ± 0.6
333.21 K, 5212.7 kPa | 1062.1 ± 0.6
333.21 K, 10090 kPa | 1095 ± 0.61
333.21 K, 10228 kPa | 1095.9 ± 0.61
333.21 K, 15025 kPa | 1126.4 ± 0.62
333.21 K, 15294 kPa | 1127.9 ± 0.62
333.21 K, 19954 kPa | 1155.9 ± 0.63
333.21 K, 20181 kPa | 1157.1 ± 0.64
333.21 K, 24959 kPa | 1184.2 ± 0.64
333.21 K, 25377 kPa | 1186.4 ± 0.65
333.21 K, 30028 kPa | 1211.3 ± 0.66
333.21 K, 30214 kPa | 1212.3 ± 0.66
353.2 K, 103.5 kPa | 957.73 ± 0.55
353.21 K, 132.1 kPa | 957.59 ± 0.55
353.21 K, 5006 kPa | 996.76 ± 0.57
353.21 K, 5137.5 kPa | 997.75 ± 0.57
353.21 K, 10089 kPa | 1034.4 ± 0.58
353.21 K, 10319 kPa | 1035.9 ± 0.58
353.21 K, 15035 kPa | 1068.3 ± 0.6
353.21 K, 15211 kPa | 1069.4 ± 0.6
353.21 K, 20108 kPa | 1100.9 ± 0.61
353.21 K, 20273 kPa | 1101.7 ± 0.61
353.21 K, 25007 kPa | 1130.5 ± 0.62
353.21 K, 25250 kPa | 1131.8 ± 0.62
353.21 K, 30102 kPa | 1159.5 ± 0.63
353.21 K, 30289 kPa | 1160.5 ± 0.63

Reference: the NIST ThermoML archive (doi:10.1021/je501065g)
